Several values for one entry are separate records, joined by “and”; a condition that tells them apart may be missing. Equal values may be shown once. Inconclusive results and toxic doses are left out.
Test system: BDF1 mice, P388 leukemia ip, median survival T/C
Assay: NCI In Vivo Anticancer Drug Screen. Data for tumor model P388 Leukemia (intraperitoneal) in B6D2F1 (BDF1) mice
Settings: endpoint: median survival time, higher = longer survival
How it was run: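 Transplantable tumour in mice; compound vs vehicle dosing; survival scored; ratio of treated to control reported.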

[1] = dose: 50.0 mg/kg/injection, schedule: Q01DX009 (ip), vehicle: Klucel (hydroxypropylcellulose) (HPC)
[2] = dose: 100.0 mg/kg/injection, schedule: Q01DX009 (ip), vehicle: Klucel (hydroxypropylcellulose) (HPC)
[3] = dose: 50.0 mg/kg/injection, schedule: Q01DX009 (ip), vehicle: saline with Tween-80
[4] = dose: 100.0 mg/kg/injection, schedule: Q01DX009 (ip), vehicle: saline with Tween-80

## COc1ccc(C=NCCN=Cc2ccc(OC)cc2)cc1
dose: 100.0 mg/kg/injection, schedule: Q01DX001 (ip), vehicle: Klucel (hydroxypropylcellulose) (HPC)
  T/C: 109 % of control
dose: 200.0 mg/kg/injection, schedule: Q01DX001 (ip), vehicle: Klucel (hydroxypropylcellulose) (HPC)
  T/C: 100 % of control
dose: 400.0 mg/kg/injection, schedule: Q01DX001 (ip), vehicle: Klucel (hydroxypropylcellulose) (HPC)
  T/C: 95 % of control

## O=[N+]([O-])c1cc([N+](=O)[O-])c2ccc(S(=O)(=O)O)cc2c1O
dose: 6.25 mg/kg/injection, schedule: Q04DX002 (ip), vehicle: saline
  T/C: 106 % of control
dose: 12.5 mg/kg/injection, schedule: Q04DX002 (ip), vehicle: saline
  T/C: 101 % of control
dose: 25.0 mg/kg/injection, schedule: Q04DX002 (ip), vehicle: saline
  T/C: 105 % of control

## C[C@]12CCC(=O)C=C1CC[C@H]1[C@@H]3CC[C@@]4(OCC4=O)[C@@]3(C)C[C@H](O)[C@@]12F
dose: 25.0 mg/kg/injection, schedule: Q01DX009 (ip), vehicle: Klucel (hydroxypropylcellulose) (HPC)
  T/C: 96 % of control
[1]
  T/C: 104 % of control
[2]
  T/C: 104 % of control
dose: 100.0 mg/kg/injection, schedule: Q04DX003 (ip), vehicle: Klucel (hydroxypropylcellulose) (HPC)
  T/C: 104 % of control
dose: 200.0 mg/kg/injection, schedule: Q04DX003 (ip), vehicle: Klucel (hydroxypropylcellulose) (HPC)
  T/C: 112 % of control
dose: 400.0 mg/kg/injection, schedule: Q04DX003 (ip), vehicle: Klucel (hydroxypropylcellulose) (HPC)
  T/C: 108 % of control

## C[N+]1(C)N=C([O-])N(c2ccc([N+](=O)[O-])cc2)C1=O
[3]
  T/C: 90 % of control
[4]
  T/C: 99 % of control

## Cc1ccc(NC(=O)CO)cc1
[1]
  T/C: 102 % of control
[2]
  T/C: 97 % of control
dose: 200.0 mg/kg/injection, schedule: Q01DX009 (ip), vehicle: Klucel (hydroxypropylcellulose) (HPC)
  T/C: 104 % of control

## CCSC(=O)N1c2ccc(C)cc2C=CC1C#N (stereo unspecified)
dose: 62.5 mg/kg/injection, schedule: Q01DX001 (ip), vehicle: saline with Tween-80
  T/C: 113 % of control
dose: 125.0 mg/kg/injection, schedule: Q01DX001 (ip), vehicle: saline with Tween-80
  T/C: 104 % of control
dose: 250.0 mg/kg/injection, schedule: Q01DX001 (ip), vehicle: saline with Tween-80
  T/C: 122 % of control

## CN(CCOS(C)(=O)=O)CCOS(C)(=O)=O
dose: 0.01 mg/kg/injection, schedule: Q01DX009 (ip), vehicle: saline
  T/C: 172 % of control
dose: 0.02 mg/kg/injection, schedule: Q01DX009 (ip), vehicle: saline
  T/C: 213 % of control
dose: 0.07 mg/kg/injection, schedule: Q04DX003 (ip), vehicle: saline
  T/C: 122 % of control
dose: 0.11 mg/kg/injection, schedule: Q04DX003 (ip), vehicle: saline
  T/C: 154 % of control
dose: 0.36 mg/kg/injection, schedule: Q01DX009 (ip), vehicle: saline
  T/C: 104 % of control and 218 % of control
dose: 0.56 mg/kg/injection, schedule: Q01DX009 (ip), vehicle: saline
  T/C: 231 % of control and 260 % of control and 90 % of control
dose: 0.75 mg/kg/injection, schedule: Q04DX003 (ip), vehicle: saline
  T/C: 213 % of control
dose: 0.84 mg/kg/injection, schedule: Q01DX009 (ip), vehicle: saline
  T/C: 231 % of control
dose: 0.99 mg/kg/injection, schedule: Q04DX003 (ip), vehicle: saline
  T/C: 225 % of control
dose: 1.5 mg/kg/injection, schedule: Q04DX003 (ip), vehicle: saline
  T/C: 240 % of control and 250 % of control
dose: 2.25 mg/kg/injection, schedule: Q04DX003 (ip), vehicle: saline
  T/C: 150 % of control
dose: 2.3 micrograms/kg/injection, schedule: Q01DX009 (ip), vehicle: saline
  T/C: 87 % of control
dose: 19.0 micrograms/kg/injection, schedule: Q01DX009 (ip), vehicle: saline
  T/C: 160 % of control
dose: 44.0 micrograms/kg/injection, schedule: Q01DX009 (ip), vehicle: saline
  T/C: 158 % of control
dose: 66.0 micrograms/kg/injection, schedule: Q01DX009 (ip), vehicle: saline
  T/C: 220 % of control

## CC(C)COC(=O)C(C)Oc1ccc(Oc2ccc(Cl)cc2)cc1 (stereo unspecified)
[3]
  T/C: 98 % of control
[4]
  T/C: 116 % of control
dose: 200.0 mg/kg/injection, schedule: Q01DX009 (ip), vehicle: saline with Tween-80
  T/C: 91 % of control

## Cc1ccc([N+](=O)[O-])cc1NC(=O)Oc1ccccc1
dose: 100.0 mg/kg/injection, schedule: Q04DX003 (ip), vehicle: other
  T/C: 92 % of control
dose: 200.0 mg/kg/injection, schedule: Q04DX003 (ip), vehicle: other
  T/C: 96 % of control
dose: 400.0 mg/kg/injection, schedule: Q04DX003 (ip), vehicle: other
  T/C: 96 % of control

— PubChem BioAssay AID328 (DTP/NCI, 2004)
